Like-named read-outs stand apart in the source and are kept apart here.
How the values were obtained:
mice = details: cited from earlier work
monkeys or humans = details: cited from earlier work
erythrocyte membrane = details: in vitro, equivalent doses; cited from earlier work
rats [1] = details: cited from earlier work
C57BL6BYJ mice = test: tail suspension test; format: in vivo; details: male mice
Procedure: The experiment used 112 C57BL6BYJ mice (Jackson Laboratories, Bar Harbor, Me.) which were housed in same sex groups (n=3-5) and maintained on a reversed 12 h light-dark cycle, with all testing being completed during the first 4 h of the dark phase cycle. Food and water were provided ad libitum except during behavioural testing. The subjects were six weeks old at the time of testing and consisted of groups with equal numbers of males (18-26 g) and females (15-21 g).
The substantially pure CBC extract (54.0 mg/ml in ethanol) was diluted in Tween 80 and subsequently diluted further to the correct dose with PBS (pH 7.4). The final concentration of Tween 80 was 5% for all preparations.
Imipramine (30 mg/kg) was used as an antidepressant control and diluted as per the CBC extract. Test article at doses of 0, 5, 10, 20, 40, 80 mg/kg/0.01 ml/g bodyweight were administered i.p. under sodium light to minimise exposure to light.
For the tail suspension test, a sound-attenuated chamber (Lafayette Instruments, Lafayette, Ind.) with a titanium bar (1 cm diameter×24 cn long) mounted 15 cm from the floor of the test chamber was used. An opto-electronic sensor was mounted in a 4 cm×4 cm white plastic column and positioned 5 cm from the mounting bar. An infra-red light transmitted from the light emitting diode onto the animal. If the animal moved, the amount of light collected by the phototransistor would increase or decrease depending on the size and duration of the movement. The opto-electric sensor was connected to an interface designed to condition and amplify the signal (range 0-10 volts) and then send the amplified signal to an A/D interface board (Powerlab 4/s: AD Instruments, Mountain View, Calif.) connected to a Macintosh G4 microcomputer. The duration of the experiment and the recording of raw behavioural responses was controlled and saved to a data file using Chart 3.6 data collection software (AD Instruments, Mountain View, Calif.).
On the day of testing, the mice were weighed and randomly assigned to groups with the restriction that equal numbers of males and females be represented in each group. Test article or control drug was injected intraperitoneally. Thirty minutes later each mouse was tested on the tail-suspension test for six minutes.
The mouse was suspended from a bar by the tail using adhesive tape so that the tip of their nose was 2 cm from the floor of the tail suspension chamber. The photodiode was then placed 5 cm away from the subject and aimed at the middle of the subject's ventral surface. Each subject was tested for six minutes. The total number of movements and total amount of time spent immobile were recorded. […] A period of immobility was counted only if no movements above 350 mV were recorded for at least 1000 ms. The total amount of time spent immobile was calculated by summing the duration of the individual immobility periods. These criteria were selected to be similar to those used in previous tail suspension studies (e.g., Steru et al., 1985).
Antidepressant effects are indicated by an increase in the frequency of struggling activity during the test. In addition the degree or amplitude of struggling is thought to be a predictor of antidepressant activity.
The results shown in FIGS. 2 to 7 are from the male mice only as the data obtained from the female mice were confounded by the oestrous cycle.

rats [2] = details: co-administration of CBC with THC; cited from earlier work
prostaglandin synthesis = details: in vitro; cited from earlier work
dogs = details: cited from earlier work
rat paw edema = details: in vivo, equivalent doses; cited from earlier work

## CCCCCc1cc(O)c2c(c1)OC(C)(CCC=C(C)C)C=C2 (centres unmarked) [CBC, cannabichromene]
mice; single intraperitoneal dose
  LD50: 113.4 mg/kg
Monkeys or humans
  cannabimimetic activity: has not been shown to cause any cannabimimetic activity
Erythrocyte membrane
  anti-inflammatory effect compared with phenylbutazone: as effective as phenylbutazone (PBZ)
Rats [1]
  muscular coordination: decreased muscular coordination
C57BL6BYJ mice; CBC 10 mg/kg/0.01 ml/g bodyweight i.p. vs imipramine 30 mg/kg
  all activity compared with imipramine: comparable to those observed in the mice administered imipramine
C57BL6BYJ mice; CBC 20 mg/kg/0.01 ml/g bodyweight i.p.
  degree of struggling (percentage very large vigorous movements), mean: 31.4%
C57BL6BYJ mice; CBC 80 mg/kg/0.01 ml/g bodyweight i.p.
  degree of struggling (percentage very large vigorous movements), mean: 30.2%
C57BL6BYJ mice; CBC 10 and 40 mg/kg/0.01 ml/g bodyweight i.p. vs imipramine 30 mg/kg
  number of large vigorous movements compared with imipramine: comparable number of large vigorous movements
C57BL6BYJ mice; CBC 20 or 80 mg/kg/0.01 ml/g bodyweight i.p. vs imipramine 30 mg/kg
  number of large vigorous movements compared with imipramine: greater number of large vigorous movements in the animals than imipramine
C57BL6BYJ mice; i.p., from Fisher's PLSD of struggling
  most efficient dose for antidepressant action: 20 mg/kg/0.01 ml/g bodyweight
Rats [2]
  effect on THC changes in heart rate: potentiates the THC changes in heart rate
  effect on THC's hypotensive effects: does not potentiate THC's hypotensive effects
Prostaglandin synthesis
  inhibition of prostaglandin synthesis: less potently than THC or CBD
dogs
  sedation: causes sedation
Rat paw edema
  anti-inflammatory effect compared with phenylbutazone: as effective as phenylbutazone (PBZ)

## CCCCCc1cc(O)c2c(c1)OC1(C)CCC3C1C2C3(C)C (centres unmarked) [Cannabicyclol]
Prostaglandin synthesis
  inhibition of prostaglandin synthesis: almost no inhibitory activity

## CCCCCc1cc(O)cc(O)c1 [Olivetol]
Prostaglandin synthesis
  inhibition of prostaglandin synthesis: high activity

## CN(C)CCCN1c2ccccc2CCc2ccccc21 [imipramine, reference compound]
C57BL6BYJ mice; imipramine 30 mg/kg/0.01 ml/g bodyweight i.p., 30 min after dosing, 6 min test
  activity mean (all activity): 733.5

## CCCCCc1cc(O)c2c(c1)OC(C)(C)[C@@H]1CCC(C)=C[C@@H]21 [Δ9-THC]
mice; single intraperitoneal dose
  LD50: 276.3 mg/kg
mice; Δ9-THC with 25 mg/kg CBC given concurrently
  LD50: 152.0 mg/kg

Source: patent US8470874B2, “Pharmaceutical compositions comprising cannabichromene type compounds” (GW Pharma Limited, priority 2003, dated 2013)
